Test results published in US5089507A, “Heterocyclic piperidinyl compounds having analgesic effect” (Dr. L. Zambeletti SpA, priority 1988, dated 1992).
Where a name gives a salt, the structure may show the parent alone.

Experiments:
Type in all cases: in vivo, Male Charles River mice (Swiss Strain)
[1] = system: mice (p-phenylquinone-induced abdominal writhing); experiment: P-phenylquinone-induced abdominal writhing test in mice; settings: sc, 20 min pretreatment, p-phenylquinone 2 mg/Kg i.p.; for ED50: Mus musculus, 20 min, read-out: ANALGESIA M. WRITHING (GRADED) ED50
Procedure: A) P-phenylquinone-induced abdominal writhing test in mice
The methodology employed is based on that described by Sigmund et al, Proc. Soc. Exptl. Biol. 95, 729/1957, modified by Milne and Twomey, Agents and Actions, 10, 31/1980.
Male Charles River mice (Swiss Strain), 25-36 g body weight, were used. Animals were allowed food and water ad libitum and were randomized into groups of 10 prior to experimentation. Test compounds were dissolved in either distilled water or distilled water plus 0.1M AMS, and administered by the subcutaneous route in a final volume of 10 ml/Kg. Control animals received 10 ml/Kg of the appropriate vehicle alone. Following a pretreatment period of 20 min., mice were injected intraperitoneally with p-phenylquinone, 2 mg/Kg at 37° C. in a final volume of […]. […] During this period the number of abdominal writhing responses per animal were recorded where writhing consists of an intermittent contraction of the abdomen associated with hind leg extension.
The degree of antinociceptive protection afforded by the test compound was determined as the mean number of writhing responses observed in the treated group (T) expressed as a percentage of the mean number of writhing responses in the control group (C) according to the following formula:
[1-(T/C]×100% graded protection

mice (tail-flick) [2] = experiment: Tail-flick test in mice (quantal protection); settings: sc, 30 min pretreatment; for ANALGESIA M. TAIL-FLICK (QUANTAL) ED50: 30 min; for ED50: Mus musculus, 0.5 h, read-out: ANALGESIA M. TAIL-FLICK (QUANTAL) ED50
Procedure: (§1) B) Tail-flick test in mice
(§2) The methodology employed is based on that described by D'Amour and Smith, J. Pharmacol. Exp. Ther. 72, 74/1941.
(§3) Male Charles River mice (Swiss Strain), 22-34 g body weight were used. Animals were allowed food and water ad libitum and were randomized into groups of 10 prior to experimentation.
(§4) Test compounds were dissolved in either distilled water or distilled water plus 0.1M AMS and administered by the subcutaneous route in a final volume of 10 ml/Kg. Control animals received 10 ml/kg of the appropriate vehicle alone. Following a pretreatment period of 30 min., the mice were again placed under the heat source and the reaction tine re-determined.
Percentage quantal protection was determined as the number of mice in which the reaction time was doubled compared to pretreatment values, expressed as a percentage of the total number of mice in the group.

mice (tail-flick) [3] = experiment: Duration of action, M. tail-flick (graded), % activity at MTFQ ED50; settings: mouse, sc
Procedure: as §1, §2, §3
as §4, with “re-determined. […]” for “re-determined.”

SMILES	ED50 [1]	ANALGESIA M. TAIL-FLICK (QUANTAL) ED50 (mice (tail-flick) [2]; mouse)	DURATION OF ACTION M. TAIL-FLICK (GRADED) % ACTIVITY AT MTFQ ED50, 30' (mice (tail-flick) [3])	DURATION OF ACTION M. TAIL-FLICK (GRADED) % ACTIVITY AT MTFQ ED50, 90' (mice (tail-flick) [3])	ED50 (mice (tail-flick) [2])	ANALGESIA M. WRITHING (GRADED) ED50 ([1]; mouse)	ANALGESIA M. TAIL-FLICK (QUANTAL) % protection at 10 mg (mice (tail-flick) [2]; mouse)	ANALGESIA M. TAIL-FLICK (QUANTAL) % protection at 1.78 mg/Kg (mice (tail-flick) [2]; mouse, 1.78 mg/Kg)
CC1CCCN(C(=O)Cc2ccc(Cl)c(Cl)c2)C1CN1CCCC1 (single isomer, unassigned) [Example 1, 1-(3,4-dichlorophenyl)acetyl-2-(pyrrolidin-1-yl)methyl-3-methyl piperidine hydrochloride hemihydrate diasteroisomer A]	0.093 mg/kg	0.405 mg/kg	87%	68%	–	–	–	–
CC1(C)CCN(C(=O)Cc2ccc(C(F)(F)F)cc2)C(CN2CCCC2)C1 (stereo not drawn) [Example 15, 1-(4-trifluoromethylphenyl)acetyl-2-(pyrrolidin-1-yl)methyl-4,4-dimethyl piperidine hydrochloride]	0.242 mg/kg	–	58%	63%	1.8 mg/kg	–	–	–
CC1CCCC(CN2CCCC2)N1C(=O)Cc1ccc(Cl)c(Cl)c1 (single isomer, unassigned; diastereoisomer a) [Example 5, 1-(3,4-dichlorophenyl)acetyl-2-(pyrrolidin-1-yl)methyl-6-methyl piperidine hydrochloride diastereoisomer A]	0.03 mg/kg	–	83%	42%	0.135 mg/kg	–	–	–
CC1(C)CCC(CN2CCCC2)N(C(=O)Cc2ccc(Cl)c(Cl)c2)C1 (stereo not drawn) [Example 11, 1-(3,4-dichlorophenyl)acetyl-2-(pyrrolidin-1-yl)methyl-5,5-dimethyl piperidine hydrochloride]	0.605 mg/kg	–	59%	57%	1.16 mg/kg	–	–	–
CC1CCCN(C(=O)Cc2ccc(Cl)c(Cl)c2)C1CN1CCCC1 (single isomer, unassigned) [Example 2, 1-(3,4-dichlorophenyl)acetyl-2-(pyrrolidin-1-yl)methyl-3-methyl piperidine hydrochloride diasteroisomer B]	–	0.147 mg/kg	66%	44%	–	0.091 mg/kg	–	–
O=C(Cc1ccc(Cl)c(Cl)c1)N1CCC[C@@H](O)[C@@H]1CN1CCCC1 (relative stereo) [Example 7, 1-(3,4-dichlorophenyl)acetyl-2-(pyrrolidin-1-yl)methyl-3-hydroxy piperidine hydrochloride diastereoisomer A trans]	0.141 mg/kg	–	–	–	0.825 mg/kg	–	–	–
CC1(C)CCCN(C(=O)Cc2ccc(Cl)c(Cl)c2)C1CN1CCCC1 (stereo not drawn) [Example 9, 1-(3,4-dichlorophenyl)acetyl-2-(pyrrolidin-1-yl)methyl-3,3-dimethyl piperidine hydrochloride]	0.029 mg/kg	–	86%	58%	0.136 mg/kg	–	–	–
CC1(C)CCCN(C(=O)Cc2ccc3c(c2)CCCC3)C1CN1CCCC1 (stereo not drawn) [Example 12, 1-(5,6,7,8-tetrahydronapht-2-yl)acetyl-2-(pyrrolidin-1-yl) methyl-3,3-dimethyl piperidine hydrochloride]	0.273 mg/kg	–	67%	65%	1.21 mg/kg	–	–	–
O=C(Cc1ccc(Cl)c(Cl)c1)N1CCC[C@H](O)[C@@H]1CN1CCCC1 (relative stereo) [Example 8, 1-(3,4-dichlorophenyl)acetyl-2-(pyrrolidin-1-yl)methyl-3-hydroxy piperidine hydrochloride diastereoisomer B cis]	–	–	–	–	–	–	20%	–
CC1CCCC(CN2CCCC2)N1C(=O)Cc1ccc(Cl)c(Cl)c1 (single isomer, unassigned; diastereoisomer a) [Example 6, 1-(3,4-dichlorophenyl)acetyl-2-(pyrrolidin-1-yl)methyl-6-methyl piperidine hydrochloride hemihydrate Diastereoisomer A]	–	–	77%	35%	–	–	–	60%
CC1(C)CCCN(C(=O)Cc2ccc3c(c2)CCCC3=O)C1CN1CCCC1 (stereo not drawn) [Example 13, 1-[1-oxo-3,4-dihydro-(2H)-napht-6-yl]acetyl-2-(pyrrolidin-1-yl)methyl-3,3-dimethyl piperidine]	–	–	–	–	–	–	60%	–
CC1CCN(C(=O)Cc2ccc(Cl)c(Cl)c2)C(CN2CCCC2)C1 (single isomer, unassigned; diastereoisomer a) [Example 3, 1-(3,4-dichlorophenylacetyl)-2-(pyrrolidin-1-yl)methyl-4-methyl piperidine hydrochloride hemihydrate diastereoisomer A]	0.149 mg/kg	–	86%	17%	0.202 mg/kg	–	–	–
CC1(C)CCN(C(=O)Cc2ccc(Cl)c(Cl)c2)C(CN2CCCC2)C1 (stereo not drawn) [Example 14, 1-(3,4-dichlorophenyl)acetyl-2-(pyrrolidin-1-yl)methyl-4,4-dimethyl piperidine hydrochloride]	0.147 mg/kg	–	69%	69%	0.824 mg/kg	–	–	–
CC1(C)CCCN(C(=O)Cc2ccc(C(F)(F)F)cc2)C1CN1CCCC1 (stereo not drawn) [Example 10, 1-(4-trifluoromethylphenyl)acetyl-2-(pyrrolidin-1-yl)methyl-3,3-dimethyl piperidine hydrochloride]	0.023 mg/kg	–	59%	57%	0.116 mg/kg	–	–	–
CC1CCC(CN2CCCC2)N(C(=O)Cc2ccc(Cl)c(Cl)c2)C1 (single isomer, unassigned) [Example 4, 1-(3,4-dichlorophenylacetyl)-2-(pyrrolidin-1-yl)methyl-5-methyl piperidine hydrochloride diasteroisomer A]	0.163 mg/kg	–	80%	54%	0.749 mg/kg	–	–	–
